Source: patent US20260199484A1, “PROTAC DEGRADERS OF MLLT1 AND/OR MLLT3” (DARK BLUE THERAPEUTICS LTD, priority 2024, published 2026)

How the values were obtained:
Assay type in all cases: cell-based
MV4-11 cells [1] = experiment: MV4-11 cellular proliferative assay, Assay Format A (CellTiter-Glo, 120 h); conditions: Homo sapiens, Assay format A, 120 h, read-out: IC50 (MV4-11 cellular proliferative assay)
Method in brief: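 MV4-11 cells seeded at 50 cells/well and exposed for 120 h to compound (10 semi-log dilutions, top 30 μM) or DMSO. Viability by CellTiter-Glo luminescence, normalised to DMSO and reference-compound wells; AC50 from Hill fit.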

MV4-11 cells [2] = experiment: MV4-11 cellular proliferative assay, Assay Format B (CTG 2.0, 168 h); conditions: Homo sapiens, Assay Method B, Table 7, read-out: MV4-11 Antiproliferation IC50
Method in brief: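 Cells seeded at 600/well in IMDM + 10% FBS, incubated overnight, then exposed 168 h (7 days) at 37 °C to 10 concentrations, 3-fold dilutions from 1 uM or 100 nM top dose (0.3% DMSO final). Viability by CTG 2.0 luminescence as % of DMSO control; curves fitted by four-parameter logistic regression.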

MLLT1 = target: T1, MLLT1 (Homo sapiens, UniProt Q03111); experiment: MLLT1 degradation assay in MV4-11 cells (JESS, 24 h); set-up: endogenous in cells; host or cells: MV4-11 (ATCC CRL-9591); conditions: vs DMSO control
T1 sequence (Q03111 1-559): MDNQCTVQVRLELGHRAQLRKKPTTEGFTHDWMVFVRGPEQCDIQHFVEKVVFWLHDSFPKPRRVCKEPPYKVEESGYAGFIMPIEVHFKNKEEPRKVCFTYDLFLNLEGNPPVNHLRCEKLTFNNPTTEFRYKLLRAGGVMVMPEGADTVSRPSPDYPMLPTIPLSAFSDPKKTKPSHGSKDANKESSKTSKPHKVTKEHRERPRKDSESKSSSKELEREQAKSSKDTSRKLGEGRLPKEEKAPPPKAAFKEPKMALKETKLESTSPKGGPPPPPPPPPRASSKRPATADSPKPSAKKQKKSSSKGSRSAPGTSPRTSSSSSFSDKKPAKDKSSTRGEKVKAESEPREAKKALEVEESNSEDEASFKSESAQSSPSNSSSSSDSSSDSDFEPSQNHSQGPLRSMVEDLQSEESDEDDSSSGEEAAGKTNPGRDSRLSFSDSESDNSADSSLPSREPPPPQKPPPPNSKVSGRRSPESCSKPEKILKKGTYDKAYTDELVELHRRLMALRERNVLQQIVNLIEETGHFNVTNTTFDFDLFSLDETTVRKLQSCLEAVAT
Method in brief: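 MV4-11 cells treated at 1000, 100 and 10 nM (0.1% DMSO) for 24 h at 37° C; lysates (4 ug protein) run on JESS capillary immunoassay with MLLT1 and GAPDH antibodies. Peak areas give % degradation versus DMSO, binned A (≥75%) to D (<25%).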

Cc1nn(CCCCCCCC#Cc2cccc3c2CN(C2CCC(=O)NC2=O)C3=O)c2cc(C(=O)Nc3cc4[nH]c([C@H]5CCCN5C)cc4cn3)ccc12 (mixture of isomers) [Example 1, 1-(9-(2-(2,6-dioxopiperidin-3-yl)-1-oxoisoindolin-4-yl)non-8-yn-1-yl)-3-methyl-N-(2-((R)-1-methylpyrrolidin-2-yl)-1H-pyrrolo[3,2-c]pyridin-6-yl)-1H-indazole-6-carboxamide]
IC50 (MV4-11 cells [1]): < 100 nM
IC50 (MV4-11 cells [2]): 6.5 nM
MLLT1% Degradation @ 0.01 μM (MLLT1; 0.01 μM): A (Category A: A≥75% degradation)
MLLT1% Degradation @ 0.1 μM (MLLT1; 0.1 μM): A (Category A: A≥75% degradation)
MLLT1% Degradation @ 1 μM (MLLT1; 1 μM): A (Category A: A≥75% degradation)
